We go through 14 molecules from ChEMBL document CHEMBL4261651, “Probing the ligand preferences of the three types of bacterial pantothenate kinase” (Bioorg Med Chem, 2018).

Assay [1] deals with Pseudomonas aeruginosa. The assay is described as follows: Growth inhibition of Pseudomonas aeruginosa ATCC 27853 after 16 hrs by broth microdilution method. The class given is functional, organism-based.
Assay [2] deals with T1, Type II pantothenate kinase (Staphylococcus aureus (strain MSSA476)) (UniProt Q6G7I0).
T1 sequence (whole entry): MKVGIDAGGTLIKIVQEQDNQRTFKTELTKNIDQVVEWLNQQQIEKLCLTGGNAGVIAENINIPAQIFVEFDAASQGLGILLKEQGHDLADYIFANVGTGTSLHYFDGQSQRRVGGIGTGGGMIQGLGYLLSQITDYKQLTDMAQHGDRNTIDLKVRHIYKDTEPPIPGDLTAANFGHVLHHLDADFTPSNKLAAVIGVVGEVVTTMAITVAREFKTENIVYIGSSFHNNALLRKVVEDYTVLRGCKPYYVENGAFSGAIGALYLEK
The assay is described as follows: Substrate activity at N-terminal His6-tagged Staphylococcus aureus PanK2 expressed in Escherichia coli BL21(DE3) cells assessed as ratio of Kcat to Km in presence of ATP/NADH by pyruvate kinase/lactate dehydrogenase enzyme coupled assay.

Assay [3] concerns Enterococcus faecium. Nature of the assay: Growth inhibition of Enterococcus faecium ATCC 19434 after 16 hrs by broth microdilution method. The class given is functional, organism-based. A general note: In broth dilution the organism is exposed to a series of concentrations in liquid medium.
Assay [4] has as its system Escherichia coli. Nature of the assay: Growth inhibition of Escherichia coli ATCC 25922 after 16 hrs by broth microdilution method. The class given is functional, organism-based.
For assay [5], the target named is T2, Type III pantothenate kinase (Pseudomonas aeruginosa (strain ATCC 15692 / DSM 22644 / CIP 104116 /JCM 14847 / LMG 12228 / 1C / PRS 101 / PAO1)) (UniProt Q9HWC1).
T2 sequence (whole entry): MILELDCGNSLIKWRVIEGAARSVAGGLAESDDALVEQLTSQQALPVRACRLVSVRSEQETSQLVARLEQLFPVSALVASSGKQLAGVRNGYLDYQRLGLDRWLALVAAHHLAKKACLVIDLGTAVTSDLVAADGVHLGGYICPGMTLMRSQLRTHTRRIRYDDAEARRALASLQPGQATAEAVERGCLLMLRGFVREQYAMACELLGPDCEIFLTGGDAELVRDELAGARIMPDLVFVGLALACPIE
Nature of the assay: Substrate activity at Pseudomonas aeruginosa PanK3 expressed in Escherichia coli BL21(DE3) cells assessed as ratio of Kcat to Km in presence of ATP/NADH by pyruvate kinase/lactate dehydrogenase enzyme coupled assay.

The target of assay [6] is T2, Type III pantothenate kinase (Pseudomonas aeruginosa (strain ATCC 15692 / DSM 22644 / CIP 104116 /JCM 14847 / LMG 12228 / 1C / PRS 101 / PAO1)). Nature of the assay: Inhibition of Pseudomonas aeruginosa PanK3 expressed in Escherichia coli BL21 Rosetta(DE3) cells at >= 100 uM using pantothenate as substrate in presence of ATP by pyruvate kinase/lactate dehydrogenase enzyme coupled assay.

For assay [7], the system named is Escherichia coli. The assay is described as follows: Inhibition of N-terminal His6-tagged Escherichia coli PanK1 expressed in Escherichia coli BL21(DE3) cells at >= 100 uM using pantothenate as substrate in presence of ATP by pyruvate kinase/lactate dehydrogenase enzyme coupled assay.
For assay [8], the target named is T1, Type II pantothenate kinase (Staphylococcus aureus (strain MSSA476)). The assay is described as follows: Inhibition of N-terminal His6-tagged Staphylococcus aureus PanK2 expressed in Escherichia coli BL21(DE3) cells at >= 100 uM using pantothenate as substrate in presence of ATP by pyruvate kinase/lactate dehydrogenase enzyme coupled assay.
The test system of assay [9] is Escherichia coli. The assay is described as follows: Inhibition of N-terminal His6-tagged Escherichia coli PanK1 expressed in Escherichia coli BL21(DE3) cells at 200 uM using pantothenate as substrate in presence of ATP by pyruvate kinase/lactate dehydrogenase enzyme coupled assay.
The target of assay [10] is T2, Type III pantothenate kinase (Pseudomonas aeruginosa (strain ATCC 15692 / DSM 22644 / CIP 104116 /JCM 14847 / LMG 12228 / 1C / PRS 101 / PAO1)). The assay is described as follows: Substrate activity at Pseudomonas aeruginosa PanK3 expressed in Escherichia coli BL21(DE3) cells in presence of ATP/NADH by pyruvate kinase/lactate dehydrogenase enzyme coupled assay.
For assay [11], the target named is T1, Type II pantothenate kinase (Staphylococcus aureus (strain MSSA476)). Nature of the assay: Substrate activity at N-terminal His6-tagged Staphylococcus aureus PanK2 expressed in Escherichia coli BL21(DE3) cells in presence of ATP/NADH by pyruvate kinase/lactate dehydrogenase enzyme coupled assay.
Assay [12] relates to Escherichia coli. The assay is described as follows: Substrate activity at N-terminal His6-tagged Escherichia coli PanK1 expressed in Escherichia coli BL21(DE3) cells in presence of ATP/NADH by pyruvate kinase/lactate dehydrogenase enzyme coupled assay.
Assay [13] concerns Escherichia coli. Nature of the assay: Substrate activity at N-terminal His6-tagged Escherichia coli PanK1 expressed in Escherichia coli BL21(DE3) cells assessed as Km in presence of ATP/NADH by pyruvate kinase/lactate dehydrogenase enzyme coupled assay.
The test system of assay [14] is Escherichia coli. The assay is described as follows: Substrate activity at N-terminal His6-tagged Escherichia coli PanK1 expressed in Escherichia coli BL21(DE3) cells assessed as ratio of Kcat to Km in presence of ATP/NADH by pyruvate kinase/lactate dehydrogenase enzyme coupled assay.
For assay [15], the system named is Escherichia coli. The assay is described as follows: Substrate activity at N-terminal His6-tagged Escherichia coli PanK1 expressed in Escherichia coli BL21(DE3) cells assessed as Kcat in presence of ATP/NADH by pyruvate kinase/lactate dehydrogenase enzyme coupled assay.
The target of assay [16] is T2, Type III pantothenate kinase (Pseudomonas aeruginosa (strain ATCC 15692 / DSM 22644 / CIP 104116 /JCM 14847 / LMG 12228 / 1C / PRS 101 / PAO1)). Nature of the assay: Inhibition of Pseudomonas aeruginosa PanK3 expressed in Escherichia coli BL21 Rosetta(DE3) cells at 200 uM using pantothenate as substrate in presence of ATP by pyruvate kinase/lactate dehydrogenase enzyme coupled assay.

The target in assay [17] is T1, Type II pantothenate kinase (Staphylococcus aureus (strain MSSA476)). Nature of the assay: Inhibition of N-terminal His6-tagged Staphylococcus aureus PanK2 expressed in Escherichia coli BL21(DE3) cells at 200 uM using pantothenate as substrate in presence of ATP by pyruvate kinase/lactate dehydrogenase enzyme coupled assay.

Activity calls are given as the source filed them. No cut-off for these calls is given here.

`CC(C)(CO)[C@@H](O)C(=O)NCCCC(=O)O`: the “growth inhibition (GI)” value in [1], in assay [3] and in assay [4] was “inactive” in each case. Besides, the Ratio in assay [2] worked out at 57 mM⁻¹ s⁻¹; in assay [5], 1.4 mM⁻¹ s⁻¹. The inhibition result in [6], in assay [7] and in assay [8] was “inactive” in each case.
As to `CCCCCNCC(C)(C)[C@@H](O)C(=O)NCCC(=O)O`, the “growth inhibition (GI)” value in [1], in assay [3] and in assay [4] was “inactive” in each case. Further, the inhibition result in assay [9] was “Active”.
As to `CC(C)(CNCCCO)[C@@H](O)C(=O)NCCC(=O)O`, the “growth inhibition (GI)” value in assay [1], in [3] and in assay [4] was “inactive” throughout. Besides, the outcome in assay [10], in assay [11] and in assay [12] was inactive. The inhibition entry in [6], in [7] and in assay [8] was “inactive” throughout.
With `CC(C)(CO)[C@@H](O)C(=O)NCCC(=O)O`, the Michaelis constant (Km) in assay [13] is 17 µM. Besides, the Ratio in assay [14] worked out at 76 mM⁻¹ s⁻¹; in assay [2], 115 mM⁻¹ s⁻¹; in [5] it was 20 mM⁻¹ s⁻¹. Further, in assay [15], the kcat turned out to be 1.29 s⁻¹.
Turning to `CC(C)(CO)[C@@H](O)C(=O)NCc1cn(CCc2ccccc2)nn1`, the “growth inhibition (GI)” value in assay [1], in assay [3] and in [4] was “inactive” each time. Besides, in assay [13], the Km came to 25 µM. Also, the Ratio is 44 mM⁻¹ s⁻¹ in [14] and 37 mM⁻¹ s⁻¹ in assay [2]. In addition, the kcat in assay [15] came out at 1.09 s⁻¹. For the same molecule, the inhibition result in assay [6], in assay [7] and in [8] was “inactive” throughout.
Turning to `O=C(O)CCNC(=O)[C@H](O)CCO`, the “growth inhibition (GI)” value in assay [1], in assay [3] and in assay [4] was “inactive” in each case. Also, in [5], the Ratio stood at 5 mM⁻¹ s⁻¹. In addition, the inhibition result in assay [6], in assay [7] and in assay [8] was “inactive” each time.
Consider `CCCCCc1cn(CCNC(=O)[C@H](O)C(C)(C)CO)nn1`, for which the “growth inhibition (GI)” value in assay [1], in assay [3] and in assay [4] was “inactive” in each case. In addition, in assay [13], the Km is 21 µM. For the same molecule, the Ratio stood at 53 mM⁻¹ s⁻¹ in [14] and 97 mM⁻¹ s⁻¹ in assay [2]. The catalytic constant (kcat) in assay [15] amounted to 1.11 s⁻¹. Further, the inhibition result in assay [6], in assay [7] and in assay [8] was “inactive” in each case.
Take `COCC(C)(C)[C@@H](O)C(=O)NCCC(=O)O`: the “growth inhibition (GI)” value in [1], in assay [3] and in assay [4] was “inactive” in each case. Further, the inhibition result in assay [9] and in assay [16] was “Active” each time.
Turning to `CCCCCn1cc(CCNC(=O)[C@H](O)C(C)(C)CO)nn1`, the “growth inhibition (GI)” value in assay [1], in assay [3] and in [4] was “inactive” in each case. In addition, in [13], the Km turned out to be 33 µM. Moreover, the Ratio in [14] was 22 mM⁻¹ s⁻¹; in assay [2], 107 mM⁻¹ s⁻¹. Also, the kcat in assay [15] amounted to 0.72 s⁻¹. Moreover, the inhibition result in assay [6], in assay [7] and in [8] was “inactive” each time.
With `CC(C)(C(=O)O)[C@@H](O)C(=O)NCCC(=O)O`, the “growth inhibition (GI)” value in assay [1], in assay [3] and in [4] was “inactive” in each case. Further, the inhibition entry in assay [17] is “Active”.
`COC(=O)CCNC(=O)[C@H](O)C(C)(C)CO`: the “growth inhibition (GI)” value in [1], in assay [3] and in assay [4] was “inactive” each time. Moreover, the Km in assay [13] turned out to be 292 µM. Moreover, the results for the Ratio in assay [14] and in assay [2] were 2.7 mM⁻¹ s⁻¹ and 8.3 mM⁻¹ s⁻¹, respectively. The kcat in assay [15] is 0.8 s⁻¹. For the same molecule, the inhibition entry in [6], in assay [7] and in [8] was “inactive” each time.
For `CC(=O)CC(=O)NCC(C)(C)[C@@H](O)C(=O)NCCC(=O)O`, the “growth inhibition (GI)” value in assay [1], in assay [3] and in assay [4] was “inactive” each time. Besides, the inhibition result in assay [9], in assay [17] and in assay [16] was “Active” in each case.
`CNCC(C)(C)[C@@H](O)C(=O)NCCC(=O)O`: the “growth inhibition (GI)” value in assay [1], in [3] and in [4] was “inactive” throughout. Further, the inhibition entry in assay [9] and in [16] was “Active” throughout.
`CC(C)(CNCCc1ccccc1)[C@@H](O)C(=O)NCCC(=O)O`: the “growth inhibition (GI)” value in [1], in assay [3] and in assay [4] was “inactive” throughout. The inhibition entry in assay [9] is “Active”.

A word on the Km: it is the concentration of substrate that gives half-maximal velocity. The kcat is the maximal rate divided by the concentration of active sites.
